Patent publication US7964598B2 (The J. David Gladstone Institutes, priority 1995, dated 2011)

Tests used:
Neuro-2a cells = assay: Binding of DiI-labeled LDL to Neuro-2a cells; format: cell-based, mouse; settings: 5 μg/ml of RAP
[1] = test system: apoE4 enhancement of Aβ production; assay: Aβ production assay, B103-APP cells incubated with apoE4; format: cell-based, rat; settings: RAP 25 nM, preincubated 1 h
Description: Aβ production assay. Stable neuroblastoma B103 cell lines transfected with a wildtype hAPP cDNA construct (B 103-APP) were selected by growing them in Dulbecco's modified Eagle's medium (DMEM) containing 10% fetal calf serum (FBS) and 400 μg/ml G418. A cell line expressing APP at similar levels in mouse brains has been identified by RNase protection assay (RPA) and was used in the studies described below. To determine Aβ production, B103-APP cells were incubated with serum-free minimal essential medium (MEM) containing N2 supplements with or without apoE isoforms for 24 h at 37° C. After incubation, 50 μl of medium was collected and assayed for Aβ levels with an ELISA method. The cells were lysed, and cellular proteins were determined by the Lowry method. AP production was normalized to cellular protein.
Cell Culture. Rat neuroblastoma B103 cells stably expressing human wildtype APP (hAPP695wt) (Xu et al. ((1999) Proc. Natl. Acad. Sci. USA 96:7547-7552; Esposito, et al. (2004) J. Neurochem. 91:1260-1274) were generated in Dr. Lennart Mucke's laboratory at the Gladstone Institute of Neurological Disease and maintained in Dulbecco's modified Eagle's medium (DMEM) (GIBCO, Grand Island, N.Y.) containing 400 μg/ml G418, 10% fetal bovine serum, and 5% horse serum at 37° C. Twenty-four hours after plating into 48-well plates (1×10^5 cells per well), cells were washed twice with serum-free DMEM and cultured for another 24 h in DMEM containing 1% N-2 supplement (GIBCO) to induce differentiation. The cells were treated with either β-VLDL (25 μg/ml cholesterol), recombinant human apoE isoform-enriched β-VLDL (7.5 μg/ml apoE and 25 μg/ml cholesterol), or recombinant human apoE (7.5 μg/ml apoE) in fresh DMEM containing 1% N-2 supplement for an additional 24 h. In some experiments, RAP (25 nM or 1 μM) was added to the cells 1 h before apoE treatment.
Aβ Assay. Aβ secreted into the medium was detected with a sandwich enzyme-linked immunosorbent assay (ELISA), using mAb 266 as a capturing antibody and 3D6 as a detecting antibody, as described. Johnson-Wood et al. ((1997) Proc. Natl. Acad. Sci. USA 94:1550-1555). Aβ was quantified from a standard curve (Aβ42; Bachem, Torrance, Calif.) and normalized by total cellular protein.

[2] = test system: apoE4-expressing Neuro-2a cells; assay: Neurite outgrowth, apoE4-expressing Neuro-2a cells; format: cell-based, mouse; settings: in the presence of β-VLDL
Description: Cells were grown in DME/F12 containing 10% FBS and G418 (400 μg/ml). On the day the experiment was initiated, the cells were subcultured into 35 mm plates in DME/F12 with 10% FBS. The cells were allowed to adhere to the plastic plates for 2 hr at 37° C., and then the culture medium was changed to N2 medium with or without increasing concentrations of lipoproteins. After 48 hr at 37° C., the media were replaced with the same medium (with or without lipoproteins), and the incubation was continued for an additional 48 hr. […] Neurons were imaged in fluorescence mode with a confocal laser scanning system (MRC-600, BioRad, Hercules, Calif.), and the images were digitized with an Image-1/AT image analysis system (Universal Images, West Chester, Pa.). The neuronal images were coded before characterization, and the following variables were measured: 1) number of neurites (defined as cell surface projections at least one-half the cell diameter) on each neuron; 2) neurite branching (the number of branch points on each neurite); and 3) neurite extension (the length of the longest neurite, measured from the cell body). Typically, in each experiment the neurites of 20 to 40 neurons per plate were measured and the results preserved as the mean±S.E.M. […]

With “RAP: receptor-associated protein, 39-kD glycoprotein, LRP antagonist” the “binding of DiI-labeled LDL to the Neuro-2a cells” value (Neuro-2a cells) was “did not block”, the “apoE4 enhancement of Aβ production” value [1] was “abolished the apoE4-induced enhancement of Aβ production” and the “inhibition of neurite extension seen in the apoE4-expressing cells” value [2] was “blocked the inhibition of neurite extension”.
